Values of other authors as cited in patent US6849254B1, “HCV combination therapy” (Schering Corporation, priority 1999, dated 2005).

Legend:
[1] = for Potency of 1 mg in IU of Vitamin E: per 1 mg
[2] = system: chronic childhood cholestasis; settings: 20-25 IU/kg/day (Sokool et al.)
CD4 levels = settings: HIV patients; higher doses; Phase I/II clinical trials (PharmaProjects)

Compound | Potency of 1 mg in IU of Vitamin E [1] [IU] | other results
CC(=O)Oc1c(C)c(C)c2c(c1C)CC[C@@](C)(CCC[C@H](C)CCC[C@H](C)CCCC(C)C)O2 [di-alpha tocopheryl acetate] |  | Amount equivalent to one IU of Vitamin E ([1]; per one IU of Vitamin E): 1 mg
Cc1c(C)c2c(c(C)c1OC(=O)CCC(=O)O)CC[C@@](C)(CCC[C@H](C)CCC[C@H](C)CCCC(C)C)O2 [d-alpha tocopheryl succinate] | 1.21 | 
Cc1c(C)c2c(c(C)c1O)CC[C@@](C)(CCC[C@H](C)CCC[C@H](C)CCCC(C)C)O2 [d-alpha tocopherol] | 1.49 | 
CC(=O)Oc1c(C)c(C)c2c(c1C)CC[C@@](C)(CCC[C@H](C)CCC[C@H](C)CCCC(C)C)O2 [d-alpha tocopheryl acetate] | 1.36 | 
d-alpha-tocopheryl polyethylene glycol 1000 succinate [Vitamin E-TPGS] |  | Safety and efficacy in chronic childhood cholestasis [2]: appears to be safe and effective
CC(C)(Sc1cc(C(C)(C)C)c(O)c(C(C)(C)C)c1)Sc1cc(C(C)(C)C)c(O)c(C(C)(C)C)c1 [Panavia, 4,4′-isopropylidenedithiobis-2,6-di-t-butylphenol] |  | CD4 levels (CD4 levels): stablized or slightly stabilized CD4 levele
